Experimental data: the NIST ThermoML archive (doi:10.1016/j.jct.2016.02.010)

Columns and labels:
[1] = Molar enthalpy of transition or fusion; settings: Crystal; DSC
[2] = molar heat capacity at constant pressure; settings: 101.33 kPa, Crystal, Small sample (50 mg) DSC
[3] = Crystal; for vapor or sublimation pressure: Calculated from knudsen effusion weight loss

OC(c1ccccc1)(c1ccccc1)c1ccccc1 [triphenylmethanol]
Settings	Molar enthalpy of transition or fusion [kcal/mol]
[1]	6.52

Settings	Normal melting temperature [°C]	molar heat capacity at constant pressure [J/K/mol]	vapor or sublimation pressure [kPa]
[2], 259.15 K	–	283	–
[2], 260.15 K	–	283.6	–
[2], 261.15 K	–	284.9	–
[2], 262.15 K	–	285.6	–
[2], 263.15 K	–	286.4	–
[2], 264.15 K	–	288.3	–
[2], 265.15 K	–	289.5	–
[2], 266.15 K	–	290.4	–
[2], 267.15 K	–	291.2	–
[2], 268.15 K	–	290.8	–
[2], 269.15 K	–	292.3	–
[2], 270.15 K	–	293.4	–
[2], 271.15 K	–	294.3	–
[2], 272.15 K	–	295.3	–
[2], 273.15 K	–	296.5	–
[2], 274.15 K	–	297.4	–
[2], 275.15 K	–	297.3	–
[2], 276.15 K	–	298.6	–
[2], 277.15 K	–	299.8	–
[2], 278.15 K	–	301.2	–
[2], 279.15 K	–	302.1	–
[2], 280.15 K	–	302.8	–
[2], 281.15 K	–	303.4	–
[2], 282.15 K	–	304.7	–
[2], 283.15 K	–	306	–
[2], 284.15 K	–	305.9	–
[2], 285.15 K	–	307	–
[2], 286.15 K	–	307.4	–
[2], 287.15 K	–	308.9	–
[2], 288.15 K	–	309.3	–
[2], 289.15 K	–	310.1	–
[2], 290.15 K	–	310.6	–
[2], 291.15 K	–	311.8	–
[2], 292.15 K	–	312.5	–
[2], 293.15 K	–	312.9	–
[2], 294.15 K	–	313.5	–
[2], 295.15 K	–	314.7	–
[2], 296.15 K	–	315.1	–
[2], 297.15 K	–	316.1	–
[2], 298.15 K	–	316.4	–
[2], 299.15 K	–	316.9	–
[2], 300.15 K	–	319.7	–
[2], 301.15 K	–	320.5	–
[2], 302.15 K	–	321.2	–
[2], 303.15 K	–	322.1	–
[2], 304.15 K	–	323	–
[2], 305.15 K	–	324.7	–
[2], 306.15 K	–	325.1	–
[2], 307.15 K	–	326.1	–
[2], 308.15 K	–	327.2	–
[2], 309.15 K	–	328.5	–
[2], 310.15 K	–	329.3	–
[2], 311.15 K	–	330	–
[2], 312.15 K	–	331.2	–
[2], 313.15 K	–	331.9	–
[2], 314.15 K	–	332.7	–
[2], 315.15 K	–	333.4	–
[2], 316.15 K	–	334.4	–
[2], 317.15 K	–	335.9	–
[2], 318.15 K	–	336.8	–
[2], 319.15 K	–	337.6	–
[2], 320.15 K	–	338.3	–
[2], 321.15 K	–	339.8	–
[2], 322.15 K	–	340.7	–
[2], 323.15 K	–	343.5	–
[2], 324.15 K	–	344.4	–
[2], 325.15 K	–	345.5	–
[2], 326.15 K	–	346.3	–
[2], 327.15 K	–	347.4	–
[2], 328.15 K	–	348.5	–
[2], 329.15 K	–	349.7	–
[2], 330.15 K	–	350.6	–
[2], 331.15 K	–	351.4	–
[2], 332.15 K	–	352.2	–
[2], 333.15 K	–	353.2	–
[2], 334.15 K	–	354.1	–
[2], 335.15 K	–	355	–
[2], 336.15 K	–	356.1	–
[2], 337.15 K	–	357.1	–
[2], 338.15 K	–	358.3	–
[2], 339.15 K	–	359.3	–
[2], 340.15 K	–	359.9	–
[2], 341.15 K	–	360.8	–
[2], 342.15 K	–	362	–
[2], 343.15 K	–	363.1	–
[2], 344.15 K	–	363.9	–
[2], 345.15 K	–	364.6	–
[2], 346.15 K	–	365.7	–
[2], 347.15 K	–	366.7	–
[2], 348.15 K	–	367.5	–
[2], 349.15 K	–	368.3	–
[2], 350.15 K	–	369.4	–
[2], 351.15 K	–	370.6	–
[2], 352.15 K	–	371.3	–
[2], 353.15 K	–	374.6	–
[2], 354.15 K	–	375.6	–
[2], 355.15 K	–	376.7	–
[2], 356.15 K	–	378.1	–
[2], 357.15 K	–	379	–
[2], 358.15 K	–	379.6	–
[2], 359.15 K	–	380.8	–
[2], 360.15 K	–	381.6	–
[2], 361.15 K	–	382.3	–
[2], 362.15 K	–	383	–
[2], 363.15 K	–	383.8	–
[2], 364.15 K	–	384.8	–
[2], 365.15 K	–	386.1	–
[2], 366.15 K	–	387.2	–
[2], 367.15 K	–	387.8	–
[2], 368.15 K	–	389.1	–
[2], 369.15 K	–	391	–
[2], 370.15 K	–	393.2	–
[2], 371.15 K	–	395.8	–
[2], 372.15 K	–	396.3	–
[2], 373.15 K	–	397.3	–
[3], 342.25 K	–	–	3.35e-06
[3], 344.44 K	–	–	4.39e-06
[3], 347.56 K	–	–	6.8e-06
[3], 351.64 K	–	–	1.11e-05
[3], 353.37 K	–	–	1.42e-05
[3], 356.81 K	–	–	1.93e-05
[3], 358.08 K	–	–	2.17e-05
[3], DTA	162.1	–	–
